Assay results as given in paper PMC5225203, “Multiparameter toxicity assessment of novel DOPO-derived organophosphorus flame retardants” (Archives of Toxicology, 2016).
Like-named read-outs stand apart in the source and are kept apart here.

Legend:
[1] = test system: fully differentiated LUHMES cells; test: Toxicity in mature central nervous system neurons (neurite mass, viability); format: cell-based, human; details: 48 h; for influence on neurites / viability: concentrations as high as 100 µM; for concentration evoking degeneration of neurites: day 6–8, all assays
Experimental: LUHMES cells are conditionally immortalized human fetal ventral mesencephalic neuronal precursor cells that were obtained by clonal selection. Differentiated LUHMES cells show a clear dopaminergic phenotype, which was described in detail previously (Schildknecht et al. [2009]; Scholz et al. [2011]). Cells were propagated in advanced DMEM/F12 (Gibco/Invitrogen, Darmstadt, Germany) with 1 × N2 supplement (Invitrogen), 2 mM L-glutamine (Gibco), and 40 ng/mL recombinant bFGF (R&D Systems, Minneapolis, MN, USA). The differentiation process was initiated by adding differentiation medium consisting of advanced DMEM/F12, 1 × N2 supplement, 2 mM L-glutamine, 1 mM dibutyryl cAMP (Sigma), 1 µg/mL tetracycline (Sigma), and 2 ng/mL recombinant human GDNF (R + D Systems). After 2 days, cells were trypsinized, collected in advanced DMEM/F12 medium, and seeded onto 24-well plates at a density of 160,000 cells/cm^2. The differentiation process was continued for 4 days. Fully differentiated LUHMES cells were treated with the tested flame retardants for 48 h from day 6 to 8 of differentiation. For visualization of morphology, cells were fixed with 4 % paraformaldehyde for 20 min at room temperature, permeabilized with 0.2 % Triton X-100, washed with PBS, blocked with 1 % BSA (Calbiochem, San Diego, CA, USA) in PBS for 1 h, and stained with a polyclonal anti-β-III-tubulin antibody (Sigma) in 1 % BSA/PBS at 4 °C overnight. After washing, secondary antibodies (anti-mouse-IgG, Alexa 488, Molecular Probes; 1:1000) in 1 % BSA/PBS were added for 1 h, after which nuclei were stained with Hoechst dye H-33342 (1 µg/mL) for 20 min. For visualization, an Olympus IX 81 microscope (Hamburg, Germany) equipped with an F-view CCD camera was used. For quantitative evaluation of the neurite area, β-III-tubulin-stained cells were analyzed using an automated microplate-reading microscope (Array-Scan II® HCS Reader, Cellomics, Pittsburgh, PA, USA) equipped with a Hamamatsu ORCA-ER camera (1024 × 1024 resolution; run at 2 × 2 binning). Nuclei were identified according to their intensity, size, area, and shape. A virtual area corresponding to the cell soma was defined around each nucleus. The total β-III-tubulin pixel area per field minus the soma areas in that field was defined as neurite mass.
[% of total activity ± SD]
[% of total activity± SD]
Suppl. Fig. 7. Toxicity of flame retar dants in central human neurons. Mature human dopaminergic neurons (LUHMES) were treated w ith the different flame retardants in the concentrations as indicated for 48 h from day 6 to day 8 of differentiation. a Cell viability was determined by the resazurin reduction and by the lact ate dehydrogenase release a ssays. b Intracellular levels of ATP and of reduced glutathione (GSH) were measured in parallel.

[2] = test system: human alveolar epithelial cell line A549; test: Acute cytotoxicity, MTS reduction, A549; format: cell-based; details: A549, 48 h; for cell damage (viability, MTS reduction): concentrations as high as 400 µM; for concentration producing acute toxicity: MTS
Experimental: The human alveolar epithelial cell line A549 (ATCC: CCL-185) was grown in Roswell Park Memorial Institute (RPMI-1640) medium (Sigma-Aldrich) supplemented with 10 % FCS (Lonza), 2 mM L-glutamine (Gibco), 50 µg/mL penicillin (Gibco), 50 µg/mL streptomycin (Gibco), and 100 µg/mL neomycin (Gibco) at 37 °C in a humidified atmosphere containing 5 % CO2 (hereafter referred to as complete cell culture medium and standard growth conditions, respectively). Cells were subcultured at approximately 80–90 % confluency using 0.5 % trypsin–EDTA (Sigma-Aldrich). For viability assessment, 1.5 × 10^4 cells per well were seeded in 200 µL complete cell culture medium in a 96-well plate and grown overnight under standard growth conditions, after which the cells were treated for 48 h with 200 µL standard growth medium per well containing increasing concentrations of the flame retardants or positive control agent CdSO4. CellTiter96® AQueous One Solution (Promega) containing MTS (3-(4,5-dimethylthiazol-2-yl)-5-(3-carboxymethoxy-phenyl)-2-(4-sulfophenyl)-2H) as a water-soluble tetrazolium compound was used according to the manufacturer’s protocol. Absorption was detected at 490 nm.

[3] = test system: neuronal and non-neuronal cell models; test: Synopsis of all in vitro assays applied in this work; format: cell-based, human; details: for cytotoxic effects: at concentrations higher than 100 µM; for IC50: Homo sapiens, read-out: average IC50 values; for concentration with cell type-independent cytotoxic properties: all cellular in vitro models
Experimental: IC50 values are defined by the concentration of the flame retardant investigated where the response was reduced by half. Log-transformed flame retardant concentration values and the respective response data were fitted to a four-parameter logistic equation: y=A+B-A/1+(x/C)^D The percent inhibition response data are represented by y; B = maximum of y; A = minimum of y; x = flame retardant concentration; C = IC50; D = Hill slope factor. The IC50 values were calculated from these sigmoidal dose–response curves utilizing Prism 5.0 (GraphPad, San Diego, CA, USA) software.

Desmodesmus subspicatus = format: cell-based
Experimental: Suppl. Fig. 6. Freshwater microalgae toxicity test. Acute toxicity was tested by assessing algal growth inhibition applying Desmodesmus subspicatus according to OECD guideline number 201. Growth inhibition tests were performed using an initial cell density of 5 x 10^3 cells/ml (= OD680 of 0.005). The cells were maintained in 250 mL flasks containing 100 mL of sterile OECD algal medium at 22°C at 130 rpm illuminated with 3000 lux. Cell density was detected photospectrometrically at λ680 nm in 24 h intervals in algae cultures treated with the respective flame retardants. Experiments were performed by BMG Engineering Ltd., […]
(§1) (1 picture or pasted object on this page, not shown here)

[4] = test system: differentiated LUHMES cells; format: cell-based, human; details: at high concentrations, correlated with neurite degeneration
Experimental: Suppl. Fig. 10. Migration of mitochondria in neurites. Mitochondrial migration was detected in fully differentiated (day 6 of differentiation, DoD6) mixed LUHMES cultures consisting of 3% eGFP/mito-tRFP-overexpressing LUHMES in 97% unlabeled LUHMES in order to allow tracking of mitochondria in single neurites in an environment of normal LUHMES cell density (Schildknecht et al. 2013, ALTEX 30(4):427-444). Single cell time lapse imaging was performed for a period of 90 s in intervals of 3 s with a Zeiss LSM 780 inverted fluorescence microscope YOKOGAWA CSU-XI spinning disk system using an EVOLVE camera (Carl Zeiss Group, Oberkochen, Germany) equipped with a 5% CO2 /37°C controlled chamber and a 40 x 1.3 NA oil objective. For image analysis, kymographs (graphical representation of spatial position over time) based on the data obtained from single cell time lapse experiments were created using ImageJ Software (NIH, Bethesda, USA). The neurite was manually defined by the segmented line tool. To calculate mitochondrial velocity, diagonal lines were drawn for each moving mitochondrium in the kymograph and analysed by calculating the slope with the macro-plugin Kymo Line ROI, generated by Felix Schöneberger, Bioimaging Center (BIC), University of Konstanz, Germany.
as §1

[5] = at concentrations ≤400 µM (abstract)
[6] = highest tested concentrations, water-soluble fraction of 1000 mg/L (approximately 2 mM)

Row | SMILES | influence on neurites / viability [1] | cell damage (viability, MTS reduction) [2] | harmful effects ([3]; all assays utilized) | cytotoxic effects [3] | algae growth (Desmodesmus subspicatus; [5]) | algae growth (Desmodesmus subspicatus; [6]) | mitochondrial velocity [4] | concentration evoking degeneration of neurites [1] [µM] | concentration producing acute toxicity [2] [µM] | IC50 [3] [µM] | concentration with cell type-independent cytotoxic properties [3] [µM] | concentration with distinct neuro-selective cytotoxicity ([3]; abstract) [µM] | concentration detrimentally influencing central and peripheral neurons ([3]; central and peripheral neurons) [µM] | toxicity in non-neuronal models ([3]; macrophages, lung epithelial cells, keratinocytes, concentrations as high as 400 µM) | influence on all parameters investigated ([3]; concentrations up to 400 µM)
1 | O=P1(NCCNP2(=O)Oc3ccccc3-c3ccccc32)Oc2ccccc2-c2ccccc21 (centres unmarked) [EDA-DOPO, 6,6′-(ethane-1,2-diylbis(azanediyl))bis(6H-dibenzo[c,e][1,2]oxaphosphinine-6-oxide)] | no influence | no signs of cell damage | no harmful effects | no comparable effects | nor did they affect algae growth or daphnia viability | no effect |  |  |  |  |  |  |  |  | 
2 | O=P1(OCCOP2(=O)Oc3ccccc3-c3ccccc32)Oc2ccccc2-c2ccccc21 (centres unmarked) [EG-DOPO, 6,6′-(ethane-1,2-diylbis(oxy))bis(6H-dibenzo[c,e][1,2]oxaphosphinine-6-oxide)] |  |  |  |  |  | inhibited algae growth | influenced mitochondrial velocity | > 10 | > 20 | 20 to 100 | > 10 |  |  |  | 
3 | O=P1(NCCOP2(=O)Oc3ccccc3-c3ccccc32)Oc2ccccc2-c2ccccc21 (centres unmarked) [ETA-DOPO, 6-(2-((6-oxido-6H-dibenzo[c,e][1,2]oxaphosphinin-6-yl)amino)ethoxy)-6H-dibenzo[c,e][1,2]oxaphosphinine 6-oxide] |  |  |  |  |  | no effect | influenced mitochondrial velocity | > 10 | > 20 | 20 to 100 | > 10 |  |  |  | 
4 | Brc1ccc(Oc2cc(Br)c(Br)cc2Br)c(Br)c1 [PBDE-99, reference compound] |  | no signs of cell damage |  |  |  |  | influenced mitochondrial velocity | > 10 |  |  |  | ≥ 10 | > 10 | no significant toxicity | 
5 | O=[PH]1Oc2ccccc2-c2ccccc21 (centres unmarked) [DOPO, 9,10-dihydro-9-oxa-10-phosphaphenanthrene-10-oxide] | no influence | no signs of cell damage |  | no comparable effects | nor did they affect algae growth or daphnia viability |  |  |  |  |  |  |  |  |  | no influence
